“And” between values parts separate entries of the source, which are not always exact repeats. Identical values can stand only once.
Tested on: 521955-158-R2-J5-PDC complex spheroid viability
Experiment: Anticancer human tumor 521955-158-R2-J5-PDC patient-derived pancreatic carcinoma cell line growth inhibition
Conditions: for viability, T/C: stronger effect = lower value
Procedure, shortened: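 Multicellular complex spheroids of tumor cells with human endothelial cells (HUVEC) and mesenchymal stem cells; the LSD1 inhibitor iadademstat was combined with standard-of-care or investigational agents. Top concentration at or near clinical Cmax, half-log dilutions; final DMSO ≤0.25%.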

[1] = curve of first compound, second compound 0.1 µM
[2] = curve of first compound, second compound 0.316 µM
[3] = curve of first compound, second compound 1 µM
[4] = curve of first compound, second compound 3.16 µM
[5] = curve of first compound, second compound 10 µM
[6] = second compound 0.1 µM, first compound 0.000949 µM
[7] = second compound 0.1 µM, first compound 0.003 µM
[8] = second compound 0.1 µM, first compound 0.00949 µM
[9] = second compound 0.1 µM, first compound 0.03 µM
[10] = second compound 0.1 µM, first compound 0.0949 µM
[11] = second compound 0.1 µM, first compound 0.3 µM
[12] = second compound 0.316 µM, first compound 0.000949 µM
[13] = second compound 0.316 µM, first compound 0.003 µM
[14] = second compound 0.316 µM, first compound 0.00949 µM
[15] = second compound 0.316 µM, first compound 0.03 µM
[16] = second compound 0.316 µM, first compound 0.0949 µM
[17] = second compound 0.316 µM, first compound 0.3 µM
[18] = second compound 1 µM, first compound 0.000949 µM
[19] = second compound 1 µM, first compound 0.003 µM
[20] = second compound 1 µM, first compound 0.00949 µM
[21] = second compound 1 µM, first compound 0.03 µM
[22] = second compound 1 µM, first compound 0.0949 µM
[23] = second compound 1 µM, first compound 0.3 µM
[24] = second compound 3.16 µM, first compound 0.000949 µM
[25] = second compound 3.16 µM, first compound 0.003 µM
[26] = second compound 3.16 µM, first compound 0.00949 µM
[27] = second compound 3.16 µM, first compound 0.03 µM
[28] = second compound 3.16 µM, first compound 0.0949 µM
[29] = second compound 3.16 µM, first compound 0.3 µM
[30] = second compound 10 µM, first compound 0.000949 µM
[31] = second compound 10 µM, first compound 0.003 µM
[32] = second compound 10 µM, first compound 0.00949 µM
[33] = second compound 10 µM, first compound 0.03 µM
[34] = second compound 10 µM, first compound 0.0949 µM
[35] = second compound 10 µM, first compound 0.3 µM
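Note: spheroids exposed to agents for seven days.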
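Throughout, for viability, T/C: percent of DMSO vehicle control luminescence viability.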

Nc1ncn(C2CC(O)C(CO)S2)c(=O)n1 (configuration not stated) + NC1CCC(NC2CC2c2ccccc2)CC1
IC50 [1]: > 300 nM
IC50 [2]: > 300 nM
IC50 [3]: > 300 nM
IC50 [4]: > 300 nM
IC50 [5]: > 300 nM
viability, T/C [6]: 92.9%
viability, T/C [7]: 91%
viability, T/C [8]: 88.3%
viability, T/C [9]: 79.8%
viability, T/C [10]: 75.6%
viability, T/C [11]: 57.3%
viability, T/C [12]: 95.9%
viability, T/C [13]: 92.2%
viability, T/C [14]: 88.9%
viability, T/C [15]: 84.6%
viability, T/C [16]: 70.3%
viability, T/C [17]: 51.5%
viability, T/C [18]: 92.5%
viability, T/C [19]: 87%
viability, T/C [20]: 93.7%
viability, T/C [21]: 82.8%
viability, T/C [22]: 77.8%
viability, T/C [23]: 56.5%
viability, T/C [24]: 103%
viability, T/C [25]: 110%
viability, T/C [26]: 91.7%
viability, T/C [27]: 88.1%
viability, T/C [28]: 76.6%
viability, T/C [29]: 52.7%
viability, T/C [30]: 93.6%
viability, T/C [31]: 94.9%
viability, T/C [32]: 98%
viability, T/C [33]: 82.8%
viability, T/C [34]: 77.4%
viability, T/C [35]: 54.9%

CCc1c2c(nc3ccc(O)cc13)-c1cc3c(c(=O)n1C2)COC(=O)[C@]3(O)CC + NC1CCC(NC2CC2c2ccccc2)CC1
IC50 [1]: < 0.949 nM
IC50 [2]: < 0.949 nM
IC50 [3]: < 0.949 nM
IC50 [4]: < 0.949 nM
IC50 [5]: < 0.949 nM
viability, T/C [6]: 4.35%
viability, T/C [7]: 3.31%
viability, T/C [8]: 1.16%
viability, T/C [9]: 0.45%
viability, T/C [10]: 0.43%
viability, T/C [11]: 0.63%
viability, T/C [12]: 5.2%
viability, T/C [13]: 4.07%
viability, T/C [14]: 0.9%
viability, T/C [15]: 0.54%
viability, T/C [16]: 0.4%
viability, T/C [17]: 0.58%
viability, T/C [18]: 5.26%
viability, T/C [19]: 3.09%
viability, T/C [20]: 0.97%
viability, T/C [21]: 0.59%
viability, T/C [22]: 0.52%
viability, T/C [23]: 0.46%
viability, T/C [24]: 4.43%
viability, T/C [25]: 3.74%
viability, T/C [26]: 0.95%
viability, T/C [27]: 0.3%
viability, T/C [28]: 0.53%
viability, T/C [29]: 1.4%
viability, T/C [30]: 4.7%
viability, T/C [31]: 4.29%
viability, T/C [32]: 1.07%
viability, T/C [33]: 0.67%
viability, T/C [34]: 1.68%
viability, T/C [35]: 0.55%

Cn1ncnc1C1c2n[nH]c(=O)c3cc(F)cc(c23)NC1c1ccc(F)cc1 (configuration not stated) + NC1CCC(NC2CC2c2ccccc2)CC1
IC50 [1]: > 100 nM
IC50 [2]: > 100 nM
IC50 [3]: > 100 nM
IC50 [4]: > 100 nM
IC50 [5]: > 100 nM
viability, T/C (second compound 0.1 µM, first compound 0.000316 µM): 109%
viability, T/C (second compound 0.1 µM, first compound 0.001 µM): 99.9%
viability, T/C (second compound 0.1 µM, first compound 0.00316 µM): 98%
viability, T/C (second compound 0.1 µM, first compound 0.01 µM): 94.1%
viability, T/C (second compound 0.1 µM, first compound 0.0316 µM): 83%
viability, T/C (second compound 0.1 µM, first compound 0.1 µM): 87.3%
viability, T/C (second compound 0.316 µM, first compound 0.000316 µM): 103%
viability, T/C (second compound 0.316 µM, first compound 0.001 µM): 92.4%
viability, T/C (second compound 0.316 µM, first compound 0.00316 µM): 89.8%
viability, T/C (second compound 0.316 µM, first compound 0.01 µM): 92.8%
viability, T/C (second compound 0.316 µM, first compound 0.0316 µM): 85.1%
viability, T/C (second compound 0.316 µM, first compound 0.1 µM): 80.6%
viability, T/C (second compound 1 µM, first compound 0.000316 µM): 90.5%
viability, T/C (second compound 1 µM, first compound 0.001 µM): 95.5%
viability, T/C (second compound 1 µM, first compound 0.00316 µM): 90.1%
viability, T/C (second compound 1 µM, first compound 0.01 µM): 87.2%
viability, T/C (second compound 1 µM, first compound 0.0316 µM): 81.8%
viability, T/C (second compound 1 µM, first compound 0.1 µM): 73.6%
viability, T/C (second compound 3.16 µM, first compound 0.000316 µM): 100%
viability, T/C (second compound 3.16 µM, first compound 0.001 µM): 96.5%
viability, T/C (second compound 3.16 µM, first compound 0.00316 µM): 95%
viability, T/C (second compound 3.16 µM, first compound 0.01 µM): 85.9%
viability, T/C (second compound 3.16 µM, first compound 0.0316 µM): 85.2%
viability, T/C (second compound 3.16 µM, first compound 0.1 µM): 76.3%
viability, T/C (second compound 10 µM, first compound 0.000316 µM): 93.7%
viability, T/C (second compound 10 µM, first compound 0.001 µM): 97.2%
viability, T/C (second compound 10 µM, first compound 0.00316 µM): 92.8%
viability, T/C (second compound 10 µM, first compound 0.01 µM): 84.6%
viability, T/C (second compound 10 µM, first compound 0.0316 µM): 82%
viability, T/C (second compound 10 µM, first compound 0.1 µM): 74.2%

CC1(C)CCC(CN2CCN(c3ccc(C(=O)NS(=O)(=O)c4ccc(NCC5CCOCC5)c([N+](=O)[O-])c4)c(Oc4cnc5[nH]ccc5c4)c3)CC2)=C(c2ccc(Cl)cc2)C1
viability, T/C (compound 0.0316 µM): 103% and 110%
viability, T/C (compound 0.1 µM): 112% and 110%
viability, T/C (compound 0.316 µM): 107% and 115%
viability, T/C (compound 1 µM): 103% and 111%
viability, T/C (compound 3.16 µM): 62% and 73.6%
viability, T/C (compound 10 µM): 0.69% and 0.97%
IC50 (curve of compound): 3960 nM and 4600 nM
